Assay results: ChEMBL document CHEMBL3885881, “DrugMatrix”

Organism: Rattus norvegicus
Assay: DrugMatrix - Regimen: Daily Repeat
Type: toxicity, organism-based, Sprague-Dawley
Set-up: regimen Daily Repeat, gender Male, age 6-8 weeks
Details: in vivo, po, route oral GAVAGE, vehicle .5 % CMC; for ABSOLUTE BASOPHIL / ABSOLUTE EOSINOPHIL / ABSOLUTE LYMPHOCYTE / ABSOLUTE MONOCYTE / ABSOLUTE SEGMENTED NEUTROPHIL / BASOPHIL / EOSINOPHIL / ERYTHROCYTE COUNT / HEMATOCRIT / HEMOGLOBIN / LEUKOCYTE COUNT / LYMPHOCYTE / MEAN CORPUSCULAR HEMOGLOBIN / MEAN CORPUSCULAR HEMOGLOBIN CONCENTRATION / MEAN CORPUSCULAR VOLUME / MONOCYTE / NEUTROPHIL / NUCLEATED RED BLOOD CELLS / PLATELET COUNT: tissue Blood; for ALANINE AMINOTRANSFERASE / ALBUMIN / ALKALINE PHOSPHATASE / ASPARTATE AMINOTRANSFERASE / BLOOD UREA NITROGEN / CARBON DIOXIDE / CHLORIDE / CHOLESTEROL / CREATINE PHOSPHOKINASE / CREATININE / GLUCOSE / LACTATE DEHYDROGENASE / LIPASE / PHOSPHORUS / POTASSIUM / SODIUM / TOTAL BILIRUBIN / TOTAL PROTEIN / URIC ACID: tissue Plasma
[1] = 100 mg/kg, 120 h, dose level Low, time 5 day
[2] = 1500 mg/kg, 72 h, dose level High, time 3 day
[3] = 1500 mg/kg, 120 h, dose level High, time 5 day

## CO[C@H]1/C=C/O[C@@]2(C)Oc3c(C)c(O)c4c(c3C2=O)C2=NC3(CCN(CC(C)C)CC3)NC2=C(NC(=O)/C(C)=C\C=C\[C@H](C)[C@H](O)[C@@H](C)[C@@H](O)[C@@H](C)[C@H](OC(C)=O)[C@@H]1C)C4=O [RIFABUTIN]
[1]
  ABSOLUTE BASOPHIL: 0 CELLS/uL
  ABSOLUTE EOSINOPHIL: 0 CELLS/uL
  ABSOLUTE LYMPHOCYTE: 10855 CELLS/uL
  ABSOLUTE MONOCYTE: 0 CELLS/uL
  ABSOLUTE SEGMENTED NEUTROPHIL: 1111.67 CELLS/uL
  BASOPHIL: 0%
  EOSINOPHIL: 0%
  ERYTHROCYTE COUNT: 5.53 x10E6/uL
  HEMATOCRIT: 35%
  HEMOGLOBIN: 13.9 G/DL
  LEUKOCYTE COUNT: 11.97 x10E3/uL
  LYMPHOCYTE: 90.67%
  MEAN CORPUSCULAR HEMOGLOBIN: 25.2 pg
  MEAN CORPUSCULAR HEMOGLOBIN CONCENTRATION: 39.77 G/DL
  MEAN CORPUSCULAR VOLUME: 63.37 fL
  MONOCYTE: 0%
  NEUTROPHIL: 9.33%
  NUCLEATED RED BLOOD CELLS: 0 /100WBC
  PLATELET COUNT: 1189 x10E3/uL
  ALANINE AMINOTRANSFERASE: 54.33 u/L
  ALBUMIN: 4.2 G/DL
  ALKALINE PHOSPHATASE: 319 u/L
  ASPARTATE AMINOTRANSFERASE: 78.33 u/L
  BLOOD UREA NITROGEN: 16.67 mg/dL
  CARBON DIOXIDE: 24.67 mmol/L
  CHLORIDE: 102.33 MEQ/L
  CHOLESTEROL: 81.33 mg/dL
  CREATINE PHOSPHOKINASE: 352 u/L
  CREATININE: 0.18 mg/dL
  GLUCOSE: 154.67 mg/dL
  LACTATE DEHYDROGENASE: 179 u/L
  LIPASE: 9.33 u/L
  PHOSPHORUS: 12.83 mg/dL
  POTASSIUM: 6.38 MEQ/L
  SODIUM: 144.7 MEQ/L
  TOTAL BILIRUBIN: 0.23 mg/dL
  TOTAL PROTEIN: 6 G/DL
  URIC ACID: 1.6 mg/dL
[2]
  ABSOLUTE BASOPHIL: 0 CELLS/uL
  ABSOLUTE EOSINOPHIL: 0 CELLS/uL
  ABSOLUTE LYMPHOCYTE: 11965.67 CELLS/uL
  ABSOLUTE MONOCYTE: 420.67 CELLS/uL
  ABSOLUTE SEGMENTED NEUTROPHIL: 2847 CELLS/uL
  BASOPHIL: 0%
  EOSINOPHIL: 0%
  ERYTHROCYTE COUNT: 6.58 x10E6/uL
  HEMATOCRIT: 40.53%
  HEMOGLOBIN: 15.87 G/DL
  LEUKOCYTE COUNT: 15.23 x10E3/uL
  LYMPHOCYTE: 77.33%
  MEAN CORPUSCULAR HEMOGLOBIN: 24.13 pg
  MEAN CORPUSCULAR HEMOGLOBIN CONCENTRATION: 39.17 G/DL
  MEAN CORPUSCULAR VOLUME: 61.6 fL
  MONOCYTE: 2.67%
  NEUTROPHIL: 20%
  NUCLEATED RED BLOOD CELLS: 0 /100WBC
  PLATELET COUNT: 1375.67 x10E3/uL
  ALANINE AMINOTRANSFERASE: 80 u/L
  ALBUMIN: 4.43 G/DL
  ALKALINE PHOSPHATASE: 350.33 u/L
  ASPARTATE AMINOTRANSFERASE: 113.67 u/L
  BLOOD UREA NITROGEN: 14 mg/dL
  CARBON DIOXIDE: 31 mmol/L
  CHLORIDE: 96.33 MEQ/L
  CHOLESTEROL: 148.67 mg/dL
  CREATINE PHOSPHOKINASE: 217 u/L
  CREATININE: 0.21 mg/dL
  GLUCOSE: 160 mg/dL
  LACTATE DEHYDROGENASE: 259 u/L
  LIPASE: 11 u/L
  PHOSPHORUS: 12.37 mg/dL
  POTASSIUM: 5.97 MEQ/L
  SODIUM: 145.43 MEQ/L
  TOTAL BILIRUBIN: 0.47 mg/dL
  TOTAL PROTEIN: 6.3 G/DL
  URIC ACID: 1.7 mg/dL
[3]
  ABSOLUTE BASOPHIL: 0 CELLS/uL
  ABSOLUTE EOSINOPHIL: 0 CELLS/uL
  ABSOLUTE LYMPHOCYTE: 11388 CELLS/uL
  ABSOLUTE MONOCYTE: 273 CELLS/uL
  ABSOLUTE SEGMENTED NEUTROPHIL: 2639 CELLS/uL
  BASOPHIL: 0%
  EOSINOPHIL: 0%
  ERYTHROCYTE COUNT: 6.24 x10E6/uL
  HEMATOCRIT: 38.2%
  HEMOGLOBIN: 15.25 G/DL
  LEUKOCYTE COUNT: 14.3 x10E3/uL
  LYMPHOCYTE: 79%
  MEAN CORPUSCULAR HEMOGLOBIN: 24.5 pg
  MEAN CORPUSCULAR HEMOGLOBIN CONCENTRATION: 39.9 G/DL
  MEAN CORPUSCULAR VOLUME: 61.45 fL
  MONOCYTE: 2%
  NEUTROPHIL: 19%
  NUCLEATED RED BLOOD CELLS: 0 /100WBC
  PLATELET COUNT: 1196.5 x10E3/uL
  ALANINE AMINOTRANSFERASE: 114 u/L
  ALBUMIN: 3.85 G/DL
  ALKALINE PHOSPHATASE: 310.5 u/L
  ASPARTATE AMINOTRANSFERASE: 198.5 u/L
  BLOOD UREA NITROGEN: 19 mg/dL
  CARBON DIOXIDE: 24.5 mmol/L
  CHLORIDE: 97.5 MEQ/L
  CHOLESTEROL: 104 mg/dL
  CREATINE PHOSPHOKINASE: 397.5 u/L
  CREATININE: 0.18 mg/dL
  GLUCOSE: 120.5 mg/dL
  LACTATE DEHYDROGENASE: 645 u/L
  LIPASE: 12.5 u/L
  PHOSPHORUS: 11 mg/dL
  POTASSIUM: 5.77 MEQ/L
  SODIUM: 142.7 MEQ/L
  TOTAL BILIRUBIN: 0.6 mg/dL
  TOTAL PROTEIN: 5.65 G/DL
  URIC ACID: 1.35 mg/dL
